In ChEMBL document CHEMBL1909046, “DrugMatrix in vitro pharmacology data”:

Legend:
[1] = target: T1, Glucocorticoid receptor (Homo sapiens, UniProt P04150); details: hela s3; note: in other assays of this panel Not Active means under 50% inhibition at 10 µM
T1 sequence (P04150 whole entry): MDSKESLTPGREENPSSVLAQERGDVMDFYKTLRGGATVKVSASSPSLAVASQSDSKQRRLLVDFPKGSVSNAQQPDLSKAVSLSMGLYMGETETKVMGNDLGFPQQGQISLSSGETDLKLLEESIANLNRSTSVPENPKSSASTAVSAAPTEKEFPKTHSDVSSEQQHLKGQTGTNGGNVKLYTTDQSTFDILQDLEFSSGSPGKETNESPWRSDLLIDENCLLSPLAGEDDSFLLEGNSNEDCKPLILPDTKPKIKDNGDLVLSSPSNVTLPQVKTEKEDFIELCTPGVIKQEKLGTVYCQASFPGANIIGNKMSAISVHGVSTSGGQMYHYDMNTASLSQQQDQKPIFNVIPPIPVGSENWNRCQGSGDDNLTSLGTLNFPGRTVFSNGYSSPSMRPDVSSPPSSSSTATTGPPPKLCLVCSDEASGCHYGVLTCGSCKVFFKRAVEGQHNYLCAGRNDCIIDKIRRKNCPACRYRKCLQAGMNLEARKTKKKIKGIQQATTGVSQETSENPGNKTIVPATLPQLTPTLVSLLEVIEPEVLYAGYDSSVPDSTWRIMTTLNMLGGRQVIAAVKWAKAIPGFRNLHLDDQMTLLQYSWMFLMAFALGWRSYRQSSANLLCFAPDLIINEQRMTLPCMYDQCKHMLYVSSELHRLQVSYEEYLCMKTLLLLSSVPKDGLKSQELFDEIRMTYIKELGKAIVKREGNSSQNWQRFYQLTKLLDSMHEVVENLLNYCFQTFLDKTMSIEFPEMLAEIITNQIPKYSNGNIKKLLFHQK

[2] = DRUGMATRIX: Tumor Necrosis Factor (TNF), Non-Selective radioligand binding (ligand: [125I] TNF-alpha); format: cell membranes, Membrane; details: u-937; Not Active = under 50% inhibition at 10 µM
[3] = target: Insulin receptor (Rattus norvegicus, UniProt P15127); format: cell membranes, Wistar, Liver, Membrane; note: in other assays of this panel Not Active means under 50% inhibition at 10 µM
[4] = target: Cytochrome P450 2C9 (Homo sapiens, UniProt P11712); details: bti-tn-5b1-4; note: in other assays of this panel Not Active means under 50% inhibition at 10 µM
[5] = DRUGMATRIX: GABAA, Chloride Channel, TBOB radioligand binding (ligand: [3H] TBOB); format: cell membranes, Rattus norvegicus, Wistar, Cerebral cortex, Membrane; details: Not Active = under 50% inhibition at 10 µM
[6] = target: T2, Caspase-1 (Homo sapiens, UniProt P29466); parameters: species or system Escherichia coli;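 note: Caspase-1 enzyme inhibition assay with a peptide substrate; in other assays of this panel Not Active means under 50% inhibition at 10 µM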
T2 sequence (P29466 whole entry): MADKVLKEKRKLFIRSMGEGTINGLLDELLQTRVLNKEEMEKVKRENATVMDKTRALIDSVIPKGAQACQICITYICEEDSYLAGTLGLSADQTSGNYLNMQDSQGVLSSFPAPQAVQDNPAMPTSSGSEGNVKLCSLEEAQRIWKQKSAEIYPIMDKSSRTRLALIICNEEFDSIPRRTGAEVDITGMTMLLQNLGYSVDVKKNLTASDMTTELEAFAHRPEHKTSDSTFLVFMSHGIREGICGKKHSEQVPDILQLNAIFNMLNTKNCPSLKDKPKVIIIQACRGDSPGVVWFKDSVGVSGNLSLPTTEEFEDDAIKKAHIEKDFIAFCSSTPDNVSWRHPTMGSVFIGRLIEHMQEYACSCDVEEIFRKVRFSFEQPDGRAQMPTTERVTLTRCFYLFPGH

[7] = target: Epidermal growth factor receptor (Homo sapiens, UniProt P00533); assay: DRUGMATRIX: Protein Tyrosine Kinase, EGF Receptor enzyme inhibition (substrate: Poly(Glu:Tyr)); format: cell-based, Insect cells; details: Not Active = under 50% inhibition at 10 µM
[8] = target: 5-hydroxytryptamine receptor 1B (Rattus norvegicus, UniProt P28564); format: cell membranes, Wistar, Cerebral cortex, Membrane; note: in other assays of this panel Not Active means under 50% inhibition at 10 µM
[9] = target: Receptor tyrosine-protein kinase erbB-2 (Homo sapiens, UniProt P04626); assay: biochemical; format: cell-based, Insect cells
[10] = target: Kappa-type opioid receptor (Homo sapiens, UniProt P41145); assay: DRUGMATRIX: Opiate kappa (OP2, KOP) radioligand binding (ligand: [3H] Diprenorphine); format: cell membranes, HEK293, Membrane; details: hek293; Not Active = under 50% inhibition at 10 µM
[11] = target: T3, Muscarinic acetylcholine receptor M4 (Homo sapiens, UniProt P08173); format: cell membranes, CHO-K1, Membrane; details: cho-k1; note: in other assays of this panel Not Active means under 50% inhibition at 10 µM
T3 sequence (P08173 whole entry): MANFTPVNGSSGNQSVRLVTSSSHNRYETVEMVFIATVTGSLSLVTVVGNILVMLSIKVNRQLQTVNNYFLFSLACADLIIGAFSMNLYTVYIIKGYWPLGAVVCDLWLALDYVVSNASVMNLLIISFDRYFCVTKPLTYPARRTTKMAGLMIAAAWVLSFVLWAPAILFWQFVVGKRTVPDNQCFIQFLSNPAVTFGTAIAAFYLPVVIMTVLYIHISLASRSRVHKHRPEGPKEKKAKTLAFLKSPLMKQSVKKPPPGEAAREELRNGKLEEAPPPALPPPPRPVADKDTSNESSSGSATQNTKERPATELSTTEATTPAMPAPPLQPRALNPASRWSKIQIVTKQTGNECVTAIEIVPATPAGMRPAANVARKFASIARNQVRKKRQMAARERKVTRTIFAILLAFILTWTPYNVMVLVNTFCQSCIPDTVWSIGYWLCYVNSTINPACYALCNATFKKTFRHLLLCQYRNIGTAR

[12] = target: T4, C-C chemokine receptor type 4 (Homo sapiens, UniProt P51679); format: cell membranes, Membrane; details: chem-1; note: in other assays of this panel Not Active means under 50% inhibition at 10 µM
T4 sequence (P51679 whole entry): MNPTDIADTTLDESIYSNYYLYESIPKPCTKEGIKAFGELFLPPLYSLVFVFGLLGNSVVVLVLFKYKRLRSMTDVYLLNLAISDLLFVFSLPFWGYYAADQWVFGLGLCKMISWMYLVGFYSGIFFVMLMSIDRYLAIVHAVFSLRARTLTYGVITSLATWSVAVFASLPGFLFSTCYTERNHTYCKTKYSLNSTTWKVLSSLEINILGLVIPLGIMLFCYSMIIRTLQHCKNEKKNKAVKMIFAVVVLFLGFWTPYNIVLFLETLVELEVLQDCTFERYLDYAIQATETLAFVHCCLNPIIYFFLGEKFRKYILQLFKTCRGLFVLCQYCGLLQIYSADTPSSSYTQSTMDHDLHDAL

[13] = target: Mitogen-activated protein kinase 1 (Homo sapiens, UniProt P28482); assay: DRUGMATRIX: Protein Serine/Threonine Kinase, ERK2 enzyme inhibition (substrate: Myelin Basic Protein); parameters: species or system Escherichia coli; details: Not Active = under 50% inhibition at 10 µM
[14] = target: Melanocortin receptor 3 (Homo sapiens, UniProt P41968); format: cell membranes, Membrane; details: hek293; note: in other assays of this panel Not Active means under 50% inhibition at 10 µM
Sequence of Melanocortin receptor 3 (P41968 whole entry): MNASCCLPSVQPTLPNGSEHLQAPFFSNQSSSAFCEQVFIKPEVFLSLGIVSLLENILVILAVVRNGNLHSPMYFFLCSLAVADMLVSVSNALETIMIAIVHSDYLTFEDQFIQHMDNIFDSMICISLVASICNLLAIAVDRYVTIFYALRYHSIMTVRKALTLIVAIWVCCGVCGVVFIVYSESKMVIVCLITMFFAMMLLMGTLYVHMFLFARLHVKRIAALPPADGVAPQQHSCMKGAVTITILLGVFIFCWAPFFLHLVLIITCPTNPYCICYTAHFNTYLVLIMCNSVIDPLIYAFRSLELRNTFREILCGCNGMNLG

Sequence of 5-hydroxytryptamine receptor 1B (P28564 whole entry): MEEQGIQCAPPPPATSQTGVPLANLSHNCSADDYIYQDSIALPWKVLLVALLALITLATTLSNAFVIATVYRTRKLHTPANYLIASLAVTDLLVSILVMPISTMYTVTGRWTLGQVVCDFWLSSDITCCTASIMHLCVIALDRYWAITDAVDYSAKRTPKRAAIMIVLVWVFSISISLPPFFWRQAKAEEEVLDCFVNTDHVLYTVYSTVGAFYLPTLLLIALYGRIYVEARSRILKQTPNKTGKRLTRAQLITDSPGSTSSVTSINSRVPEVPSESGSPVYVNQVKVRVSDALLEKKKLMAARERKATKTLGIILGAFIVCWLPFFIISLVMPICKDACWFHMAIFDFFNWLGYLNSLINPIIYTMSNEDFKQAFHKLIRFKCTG
Sequence of Insulin receptor (P15127 27-759 limits assumed): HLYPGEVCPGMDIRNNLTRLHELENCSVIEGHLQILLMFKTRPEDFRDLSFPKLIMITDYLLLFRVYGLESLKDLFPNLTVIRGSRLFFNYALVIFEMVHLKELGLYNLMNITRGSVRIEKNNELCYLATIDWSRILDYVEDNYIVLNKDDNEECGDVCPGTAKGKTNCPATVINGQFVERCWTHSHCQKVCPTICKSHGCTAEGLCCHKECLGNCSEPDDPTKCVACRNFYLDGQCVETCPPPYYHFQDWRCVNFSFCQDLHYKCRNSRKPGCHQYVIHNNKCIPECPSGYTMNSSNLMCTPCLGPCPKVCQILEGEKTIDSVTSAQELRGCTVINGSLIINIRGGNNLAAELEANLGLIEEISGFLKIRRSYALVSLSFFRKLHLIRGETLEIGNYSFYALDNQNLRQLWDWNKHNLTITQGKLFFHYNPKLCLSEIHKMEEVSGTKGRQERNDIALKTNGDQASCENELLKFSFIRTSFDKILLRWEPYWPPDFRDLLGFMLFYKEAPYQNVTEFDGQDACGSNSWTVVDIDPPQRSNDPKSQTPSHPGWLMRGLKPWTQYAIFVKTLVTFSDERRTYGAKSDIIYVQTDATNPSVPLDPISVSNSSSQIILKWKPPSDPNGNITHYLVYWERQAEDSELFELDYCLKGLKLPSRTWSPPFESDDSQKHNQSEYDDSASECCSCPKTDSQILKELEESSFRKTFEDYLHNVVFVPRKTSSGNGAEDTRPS
Sequence of Insulin receptor (P15127 764-1383 limits assumed): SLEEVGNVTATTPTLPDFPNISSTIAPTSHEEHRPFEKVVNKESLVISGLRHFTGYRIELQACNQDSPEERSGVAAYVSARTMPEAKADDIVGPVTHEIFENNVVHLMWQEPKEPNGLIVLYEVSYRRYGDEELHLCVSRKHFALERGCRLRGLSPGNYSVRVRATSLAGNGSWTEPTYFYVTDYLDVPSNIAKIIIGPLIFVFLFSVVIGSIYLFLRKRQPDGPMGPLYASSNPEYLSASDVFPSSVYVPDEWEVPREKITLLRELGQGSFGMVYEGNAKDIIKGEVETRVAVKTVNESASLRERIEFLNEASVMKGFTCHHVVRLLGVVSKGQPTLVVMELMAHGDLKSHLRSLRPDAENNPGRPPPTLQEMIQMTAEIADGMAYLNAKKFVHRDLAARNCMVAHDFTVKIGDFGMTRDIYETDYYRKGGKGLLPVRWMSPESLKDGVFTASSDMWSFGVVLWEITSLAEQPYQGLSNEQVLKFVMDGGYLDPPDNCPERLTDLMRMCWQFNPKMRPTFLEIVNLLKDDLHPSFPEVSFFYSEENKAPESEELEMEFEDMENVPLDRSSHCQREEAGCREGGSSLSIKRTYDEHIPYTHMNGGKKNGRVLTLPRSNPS
Sequence of Cytochrome P450 2C9 (P11712 whole entry): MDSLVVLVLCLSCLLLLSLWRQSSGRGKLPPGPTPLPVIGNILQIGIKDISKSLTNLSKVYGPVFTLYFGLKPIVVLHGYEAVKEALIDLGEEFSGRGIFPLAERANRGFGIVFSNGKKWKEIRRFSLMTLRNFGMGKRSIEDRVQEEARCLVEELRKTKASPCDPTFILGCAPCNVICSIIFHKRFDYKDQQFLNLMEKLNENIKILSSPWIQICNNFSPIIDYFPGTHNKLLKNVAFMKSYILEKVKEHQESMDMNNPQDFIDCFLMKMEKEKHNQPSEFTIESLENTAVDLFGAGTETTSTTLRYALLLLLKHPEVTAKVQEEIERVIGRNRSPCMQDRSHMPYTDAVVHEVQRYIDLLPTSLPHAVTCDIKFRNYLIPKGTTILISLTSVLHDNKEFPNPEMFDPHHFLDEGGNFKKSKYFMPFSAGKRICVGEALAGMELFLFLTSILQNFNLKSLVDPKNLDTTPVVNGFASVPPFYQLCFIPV
Sequence of Epidermal growth factor receptor (P00533 whole entry): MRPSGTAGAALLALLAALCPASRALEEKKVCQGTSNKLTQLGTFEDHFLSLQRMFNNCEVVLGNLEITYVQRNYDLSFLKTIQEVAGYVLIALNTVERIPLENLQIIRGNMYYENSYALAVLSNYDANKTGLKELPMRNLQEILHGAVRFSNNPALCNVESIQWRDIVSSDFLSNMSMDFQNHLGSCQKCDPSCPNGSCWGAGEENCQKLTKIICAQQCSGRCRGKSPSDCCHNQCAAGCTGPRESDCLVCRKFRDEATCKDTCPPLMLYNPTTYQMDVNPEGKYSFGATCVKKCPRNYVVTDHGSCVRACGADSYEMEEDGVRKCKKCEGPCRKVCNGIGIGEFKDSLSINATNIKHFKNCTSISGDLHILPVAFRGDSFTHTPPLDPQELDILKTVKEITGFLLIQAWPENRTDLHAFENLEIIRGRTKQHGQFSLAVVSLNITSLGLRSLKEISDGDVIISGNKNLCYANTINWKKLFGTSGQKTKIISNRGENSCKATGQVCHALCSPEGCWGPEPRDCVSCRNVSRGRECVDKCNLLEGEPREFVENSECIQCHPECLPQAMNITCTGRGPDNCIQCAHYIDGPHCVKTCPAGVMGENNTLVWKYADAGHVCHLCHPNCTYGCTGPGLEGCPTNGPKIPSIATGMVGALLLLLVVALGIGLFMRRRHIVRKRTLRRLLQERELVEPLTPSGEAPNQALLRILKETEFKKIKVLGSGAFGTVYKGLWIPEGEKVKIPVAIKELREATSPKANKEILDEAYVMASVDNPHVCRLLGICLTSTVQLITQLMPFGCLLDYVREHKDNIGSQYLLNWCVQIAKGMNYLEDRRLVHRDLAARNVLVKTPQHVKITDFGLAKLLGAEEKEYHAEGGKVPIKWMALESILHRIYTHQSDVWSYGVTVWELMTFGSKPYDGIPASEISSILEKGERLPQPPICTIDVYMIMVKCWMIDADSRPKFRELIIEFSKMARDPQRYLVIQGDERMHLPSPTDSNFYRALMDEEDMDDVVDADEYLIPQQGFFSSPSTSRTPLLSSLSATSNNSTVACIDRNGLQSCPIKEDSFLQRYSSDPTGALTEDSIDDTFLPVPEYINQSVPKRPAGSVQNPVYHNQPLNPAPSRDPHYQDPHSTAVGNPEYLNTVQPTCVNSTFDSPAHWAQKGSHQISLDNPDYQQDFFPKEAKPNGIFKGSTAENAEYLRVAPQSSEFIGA
Sequence of Mitogen-activated protein kinase 1 (P28482 whole entry): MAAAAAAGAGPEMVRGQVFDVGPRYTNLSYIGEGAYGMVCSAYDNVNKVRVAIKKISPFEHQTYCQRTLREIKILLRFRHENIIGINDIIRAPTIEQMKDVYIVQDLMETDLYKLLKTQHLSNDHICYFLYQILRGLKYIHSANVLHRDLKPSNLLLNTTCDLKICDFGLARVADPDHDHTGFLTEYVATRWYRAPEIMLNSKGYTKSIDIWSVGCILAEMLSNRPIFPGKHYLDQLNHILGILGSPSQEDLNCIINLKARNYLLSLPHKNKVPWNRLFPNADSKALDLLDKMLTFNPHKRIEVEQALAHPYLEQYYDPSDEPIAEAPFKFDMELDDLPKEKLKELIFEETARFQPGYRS
Sequence of Kappa-type opioid receptor (P41145 whole entry): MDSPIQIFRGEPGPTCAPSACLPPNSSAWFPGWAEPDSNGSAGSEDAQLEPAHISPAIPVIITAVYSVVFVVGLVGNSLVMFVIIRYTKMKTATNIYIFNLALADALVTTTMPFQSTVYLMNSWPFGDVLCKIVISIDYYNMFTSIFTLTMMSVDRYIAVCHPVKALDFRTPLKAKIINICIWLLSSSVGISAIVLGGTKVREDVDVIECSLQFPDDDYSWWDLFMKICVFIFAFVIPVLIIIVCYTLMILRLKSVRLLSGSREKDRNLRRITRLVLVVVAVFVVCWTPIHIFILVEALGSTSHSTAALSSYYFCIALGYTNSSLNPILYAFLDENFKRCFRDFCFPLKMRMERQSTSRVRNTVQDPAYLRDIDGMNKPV

NCC[C@H](O)C(=O)N[C@@H]1C[C@H](N)[C@@H](O[C@H]2O[C@H](CN)[C@@H](O)[C@H](O)[C@H]2O)[C@H](O)[C@H]1O[C@H]1O[C@H](CO)[C@@H](O)[C@H](N)[C@H]1O [AMIKACIN]
IC50 [1]: Not Active
IC50 [2]: Not Active
Ki [2]: Not Active
IC50 [3]: Not Active
IC50 [4]: Not Active
Ki [4]: Not Active
IC50 [5]: Not Active
Ki [5]: Not Active
IC50 [6]: Not Active
IC50 ([7]; insect cells): Not Active
IC50 [8]: Not Active
IC50 ([9]; insect cells): Not Active
IC50 [10]: Not Active
IC50 [11]: Not Active
IC50 [12]: Not Active
IC50 [13]: Not Active
IC50 [14]: Not Active

CCOC(=O)OC(C)OC1=C(C(=O)Nc2ccccn2)N(C)S(=O)(=O)c2ccccc21 (stereo unspecified) [AMPIROXICAM]
IC50 [1]: Not Active
IC50 [2]: Not Active
Ki [2]: Not Active
IC50 [3]: Not Active
IC50 [4]: Not Active
Ki [4]: Not Active
IC50 [5]: Not Active
Ki [5]: Not Active
IC50 [6]: Not Active
IC50 ([7]; insect cells): Not Active
IC50 [8]: Not Active
IC50 ([9]; insect cells): Not Active
IC50 [10]: Not Active
IC50 [11]: Not Active
IC50 [12]: Not Active
IC50 [13]: Not Active
IC50 [14]: Not Active

Cn1cnc([N+](=O)[O-])c1Sc1ncnc2nc[nH]c12 [AZATHIOPRINE]
IC50 [1]: Not Active
IC50 [2]: Not Active
Ki [2]: Not Active
IC50 [3]: Not Active
IC50 [4]: Not Active
Ki [4]: Not Active
IC50 [5]: Not Active
Ki [5]: Not Active
IC50 [6]: Not Active
IC50 ([7]; insect cells): Not Active
IC50 [8]: Not Active
IC50 ([9]; insect cells): Not Active
IC50 [10]: Not Active
IC50 [11]: Not Active
IC50 [12]: Not Active
IC50 [13]: Not Active
IC50 [14]: Not Active

CC1(C)S[C@@H]2[C@H](NC(=O)[C@H](NC(=O)N3CCNC3=O)c3ccccc3)C(=O)N2[C@H]1C(=O)O [AZLOCILLIN]
IC50 [1]: Not Active
IC50 [2]: Not Active
Ki [2]: Not Active
IC50 [3]: Not Active
IC50 [4]: Not Active
Ki [4]: Not Active
IC50 [5]: Not Active
Ki [5]: Not Active
IC50 [6]: Not Active
IC50 ([7]; insect cells): Not Active
IC50 [8]: Not Active
IC50 ([9]; insect cells): Not Active
IC50 [10]: Not Active
IC50 [11]: Not Active
IC50 [12]: Not Active
IC50 [13]: Not Active
IC50 [14]: Not Active

CCOC(=O)c1ccc(N)cc1 [BENZOCAINE]
IC50 [1]: Not Active
IC50 [2]: Not Active
Ki [2]: Not Active
IC50 [3]: Not Active
IC50 [4]: Not Active
Ki [4]: Not Active
IC50 [5]: Not Active
Ki [5]: Not Active
IC50 [6]: Not Active
IC50 ([7]; insect cells): Not Active
IC50 [8]: Not Active
IC50 ([9]; insect cells): Not Active
IC50 [10]: Not Active
IC50 [11]: Not Active
IC50 [12]: Not Active
IC50 [13]: Not Active
IC50 [14]: Not Active

OCc1ccccc1 [BENZYL ALCOHOL]
IC50 [1]: Not Active
IC50 [2]: Not Active
Ki [2]: Not Active
IC50 [3]: Not Active
IC50 [4]: Not Active
Ki [4]: Not Active
IC50 [5]: Not Active
Ki [5]: Not Active
IC50 [6]: Not Active
Ki ([7]; insect cells): Not Active
IC50 [8]: Not Active
IC50 ([9]; insect cells): Not Active
IC50 [10]: Not Active
IC50 [11]: Not Active
IC50 [12]: Not Active
IC50 [13]: Not Active
IC50 [14]: Not Active

CC(C)(Oc1ccc(CCNC(=O)c2ccc(Cl)cc2)cc1)C(=O)O [BEZAFIBRATE]
IC50 [1]: Not Active
IC50 [2]: Not Active
Ki [2]: Not Active
IC50 [3]: Not Active
IC50 [4]: Not Active
Ki [4]: Not Active
IC50 [5]: Not Active
Ki [5]: Not Active
IC50 [6]: Not Active
IC50 ([7]; insect cells): Not Active
IC50 [8]: Not Active
IC50 ([9]; insect cells): Not Active
IC50 [10]: Not Active
IC50 [11]: Not Active
IC50 [12]: Not Active
IC50 [13]: Not Active
IC50 [14]: Not Active

Oc1c(Cl)cc(Cl)cc1Sc1cc(Cl)cc(Cl)c1O [BITHIONOL]
IC50 [1]: Not Active
IC50 [2]: Not Active
Ki [2]: Not Active
IC50 [3]: Not Active
IC50 [4]: Not Active
Ki [4]: Not Active
IC50 [5]: Not Active
Ki [5]: Not Active
IC50 [6]: Not Active
IC50 ([7]; read-out: IC50): 614 nM
IC50 [8]: Not Active
IC50 ([9]; read-out: IC50): 2150 nM
IC50 [10]: Not Active
IC50 [11]: Not Active
IC50 [12]: Not Active
IC50 ([13]; read-out: IC50): 385 nM
IC50 [14]: Not Active
